In ChEMBL document CHEMBL4680194, “Synthesis and biological evaluation of 1,2,4-triazole derivatives as potential neuroprotectant against ischemic brain injury” (Eur J Med Chem, 2020):
Activity calls are given as the source filed them. The rule behind the calls is not given here.

Columns and labels:
PC-12 [1] = experiment: Antioxidant activity in rat PC-12 cells assessed as reduction in H2O2-induced ROS level incubated for 1 hr followed by H2O2 stimulation and measured after 5 hrs by DCFH-DA staining based fluorescence microscopy; type: functional, cell-based; settings: dose 2.5-10 µM, time 6.0 hrs
PC-12 [2] = experiment: Inhibition of SNP-induced apoptosis in rat PC-12 cells assessed as reduction in condensed nuclei incubated for 1 hr followed by SNP stimulation and measured after 24 hrs by Hoechst 33258 staining based fluorescence microscopy; type: functional, cell-based; settings: dose 2.5-10 µM, time 25.0 hrs
PC-12 [3] = experiment: Inhibition of H2O2-induced apoptosis in rat PC-12 cells assessed as effect on cell morphology incubated for 1 hr followed by H2O2 stimulation and measured after 5 hrs by Hoechst 33258 staining based fluorescence microscopy; type: functional; settings: dose 2.5-10 µM, time 6.0 hrs
PC-12 [4] = experiment: Cytoprotective activity against H2O2-induced cell death in rat PC-12 cells assessed as increase in cell viability incubated for 1 hr followed by H2O2 stimulation and measured after 5 hrs by LDH assay; type: functional, cell-based; settings: time 6.0 hrs
PC-12 [5] = experiment: Cytoprotective activity against SNP-induced cell death in rat PC-12 cells assessed as increase in cell viability at 10 uM incubated for 1 hr followed by SNP stimulation and measured after 24 hrs by MTT assay; type: functional; settings: time 25 hrs
PC-12 [6] = experiment: Inhibition of SNP-induced mitochondrial membrane potential loss in rat PC-12 cells assessed as increase in red fluoresence at 2.5 to 10 uM incubated for 1 hr followed by SNP stimulation and measured after 24 hrs by JC-1 staining based fluorescence microscopy; type: functional, cell-based; settings: dose 2.5-10 µM, time 25.0 hrs
[7] = Toxicity in […] assessed as behavior changes at 400 mg/kg, ip observed after 12 hrs; type: organism-based; settings: in vivo
[8] = Toxicity in […] assessed as body weight at 400 mg/kg, ip measured on day 1 (reference value: 24.4 to 28.4 g); type: organism-based; settings: in vivo, 24 h, time 1 day
[9] = molecular target: T1, Nuclear factor erythroid 2-related factor 2 (Rattus norvegicus) (UniProt O54968); experiment: Induction of Nrf2 nuclear translocation in rat PC-12 cells assessed as H2O2-induced GSH-px level at 2.5 uM incubated for 1 hr followed by H2O2 stimulation and measured after 5 hrs (reference value: 45.92 +/- 3.64 mU/mg); type: cell-based; settings: time 6.0 hrs
T1 sequence (whole entry): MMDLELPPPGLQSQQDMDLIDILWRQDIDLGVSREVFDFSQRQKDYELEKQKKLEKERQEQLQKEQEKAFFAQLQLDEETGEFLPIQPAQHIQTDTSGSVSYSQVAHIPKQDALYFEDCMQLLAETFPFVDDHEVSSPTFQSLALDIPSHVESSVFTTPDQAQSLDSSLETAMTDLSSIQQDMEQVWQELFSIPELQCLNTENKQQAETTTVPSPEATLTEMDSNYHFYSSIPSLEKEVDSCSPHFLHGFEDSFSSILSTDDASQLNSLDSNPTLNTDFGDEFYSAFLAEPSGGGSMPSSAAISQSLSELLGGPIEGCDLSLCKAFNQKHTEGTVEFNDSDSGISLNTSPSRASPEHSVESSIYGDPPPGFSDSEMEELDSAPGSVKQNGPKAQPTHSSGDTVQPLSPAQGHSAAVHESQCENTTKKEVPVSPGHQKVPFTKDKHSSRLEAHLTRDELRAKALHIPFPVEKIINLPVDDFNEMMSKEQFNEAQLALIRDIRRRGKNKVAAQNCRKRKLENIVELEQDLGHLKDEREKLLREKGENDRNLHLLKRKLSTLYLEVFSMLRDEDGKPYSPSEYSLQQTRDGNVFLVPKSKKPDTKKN

[10] = molecular target: T1, Nuclear factor erythroid 2-related factor 2 (Rattus norvegicus); experiment: Induction of Nrf2 nuclear translocation in rat PC-12 cells assessed as H2O2-induced SOD level at 10 uM incubated for 1 hr followed by H2O2 stimulation and measured after 5 hrs (reference value: 29.69 +/- 1.65 U/mg); type: cell-based; settings: time 6.0 hrs
[11] = molecular target: T1, Nuclear factor erythroid 2-related factor 2 (Rattus norvegicus); experiment: Induction of Nrf2 nuclear translocation in rat PC-12 cells assessed as SNP-induced GSH level at 10 uM incubated for 1 hr followed by SNP stimulation and measured after 24 hrs (reference value: 75.78 +/- 1.74 nM/mg); type: cell-based; settings: time 25.0 hrs
[12] = molecular target: T1, Nuclear factor erythroid 2-related factor 2 (Rattus norvegicus); experiment: Induction of Nrf2 nuclear translocation in rat PC-12 cells assessed as SNP-induced GSH-px level at 2.5 uM incubated for 1 hr followed by SNP stimulation and measured after 24 hrs (reference value: 37.70 +/- 2.88 mU/mg); type: cell-based; settings: time 25.0 hrs
[13] = molecular target: T1, Nuclear factor erythroid 2-related factor 2 (Rattus norvegicus); experiment: Induction of Nrf2 nuclear translocation in rat PC-12 cells assessed as SNP-induced GSH-px level at 10 uM incubated for 1 hr followed by SNP stimulation and measured after 24 hrs (reference value: 37.70 +/- 2.88 mU/mg); type: cell-based; settings: time 25.0 hrs
[14] = molecular target: T1, Nuclear factor erythroid 2-related factor 2 (Rattus norvegicus); experiment: Induction of Nrf2 nuclear translocation in rat PC-12 cells assessed as H2O2-induced GSH-px level incubated for 1 hr followed by H2O2 stimulation and measured after 5 hrs; type: cell-based; settings: dose 2.5-10 µM, time 6.0 hrs
[15] = molecular target: T1, Nuclear factor erythroid 2-related factor 2 (Rattus norvegicus); experiment: Induction of Nrf2 nuclear translocation in rat PC-12 cells assessed as SNP-induced GSH level incubated for 1 hr followed by SNP stimulation and measured after 24 hrs; type: cell-based; settings: dose 2.5-10 µM, time 25.0 hrs
PC-12 [16] = experiment: Reversal of LY294002-induced Nrf2 inhibition in rat PC-12 cells at 1.25 to 5 uM incubated for 1 hr followed by LY294002 stimulation and measured after 24 hrs by Western blot analysis; type: functional, cell-based; settings: dose 1.25-5 µM, time 25.0 hrs
PC-12 [17] = experiment: Cytoprotective activity against H2O2-induced cell death in rat PC12 cells assessed as increase in cell viability at 10 uM incubated for 1 hr followed by H2O2 stimulation and measured after 5 hrs in presence of LY294002 by MTT assay; type: functional, cell-based; settings: time 6.0 hrs
[18] = Cmax in Sprague-Dawley rat at 20 mg/kg, po measured upto 24 hrs by LC-MS/MS analysis; type: ADME, organism-based; parameters: route oral, dose 20 mg/kg, time <=24; settings: in vivo
[19] = AUC (0 to infinity) in Sprague-Dawley rat at 20 mg/kg, po measured upto 24 hrs by LC-MS/MS analysis; type: ADME, organism-based; parameters: route oral, dose 20 mg/kg, time <=24; settings: in vivo
[20] = AUC (0 to infinity) in Sprague-Dawley rat at 2 mg/kg, iv measured upto 24 hrs by LC-MS/MS analysis; type: ADME, organism-based; parameters: route intravenous, dose 2 mg/kg, time <=24; settings: in vivo

With COc1ccc(-c2nc(-c3ccccc3O)n(-c3ccc(S(N)(=O)=O)cc3)n2)c(O)c1 the inhibition (PC-12 [1]) was “Dose-dependent effect”, the inhibition (PC-12 [2]) was “Dose-dependent effect” and the inhibition (PC-12 [3]) was “Dose-dependent effect”. The Activity (PC-12 [4]) was “Dose-dependent effect”, the Activity (PC-12 [5]) was 30% and the inhibition (PC-12 [6]) was “Active”. For the same compound, the Activity [7] was “Non-Toxic”, the Activity [8] was 24.3 g and the Activity [9] was 51 mU/mg. For the same compound, the Activity [10] was 41.2 U/mg, the Activity [11] was 89.2 nM/mg and the Activity [12] was 42.5 mU/mg. For the same compound, the Activity [13] was 52.8 mU/mg, the Activity [14] was “Dose-dependent effect” and the Activity [15] was “Dose-dependent effect”. For the same compound, the Activity (PC-12 [16]) was “Active”, the Activity (PC-12 [17]) was “inactive” and the Cmax [18] was 2030 ng/mL. It also gave an AUC(0-inf) [19] of 14200 ng·h/mL and an AUC(0-inf) [20] of 2330 ng·h/mL.
